This passage reports MIC and Ki results from ChEMBL document CHEMBL1141178, “Identification of 4-substituted 1,2,3-triazoles as novel oxazolidinone antibacterial agents with reduced activity against monoamine oxidase A” (J Med Chem, 2005).

Assay [1] can be described thus: Minimum inhibitory concentration against Haemophilus influenzae ATCC 51907. The format is functional.
The test system of the next assay is Staphylococcus aureus. Nature of the assay: Minimum inhibitory concentration against methicillin susceptible Staphylococcus aureus AP601055. The class given is functional.
Assay [2] concerns the target T1, Amine oxidase [flavin-containing] A (Homo sapiens, UniProt P21397).
T1 sequence (P21397 whole entry): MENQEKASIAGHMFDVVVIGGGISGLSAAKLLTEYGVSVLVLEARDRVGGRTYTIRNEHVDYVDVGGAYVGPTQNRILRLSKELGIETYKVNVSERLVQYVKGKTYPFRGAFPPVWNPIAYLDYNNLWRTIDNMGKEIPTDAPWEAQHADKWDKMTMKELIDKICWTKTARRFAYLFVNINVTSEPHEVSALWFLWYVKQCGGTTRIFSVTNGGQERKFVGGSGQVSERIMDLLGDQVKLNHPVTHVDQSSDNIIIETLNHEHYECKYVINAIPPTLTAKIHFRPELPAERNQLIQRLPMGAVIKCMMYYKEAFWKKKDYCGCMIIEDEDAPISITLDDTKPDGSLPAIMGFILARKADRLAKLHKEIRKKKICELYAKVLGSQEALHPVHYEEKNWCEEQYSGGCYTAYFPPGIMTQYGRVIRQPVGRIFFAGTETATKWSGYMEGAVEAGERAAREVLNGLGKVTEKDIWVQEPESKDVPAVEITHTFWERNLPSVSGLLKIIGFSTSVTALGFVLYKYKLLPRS
The assay is described as follows: Binding affinity for human liver monoamine oxidase A.

The subject of a further assay is Streptococcus pneumoniae. The assay is described as follows: Minimum inhibitory concentration against penicillin susceptible Streptococcus pneumoniae AP671401. The format is functional.

The structures appear in SMILES notation. In brackets after ≈: the same amount, converted by molar mass. Bounds are passed on as bounds.

One may read the Ki as the dissociation constant of the complex between target and ligand, obtained from inhibition or displacement. Low values mean tighter binding, high ones weaker binding. Consider `CCc1cn(C[C@H]2CN(c3ccc(C4=CCS(=O)(=O)CC4)c(F)c3)C(=O)O2)nn1`, for which the MIC in assay [1] is 8 µg/mL (≈ 19 µM); against Staphylococcus aureus it was 4 µg/mL (≈ 9.51 µM); with Streptococcus pneumoniae, 2 µg/mL (≈ 4.76 µM). For the same compound, the Ki in assay [2] was over 200 µM.
Regarding `O=C1O[C@@H](Cn2cc(C=C(Br)Br)nn2)CN1c1ccc(C2=CCS(=O)(=O)CC2)c(F)c1`, the MIC in assay [1] is over 64 µg/mL; in the assay with Staphylococcus aureus, over 64 µg/mL; in the assay on Streptococcus pneumoniae, 4 µg/mL (≈ 6.94 µM). The compound also returned a Ki in assay [2] of over 100 µM.
`C#Cc1cn(C[C@H]2CN(c3ccc(C4=CCS(=O)(=O)CC4)c(F)c3)C(=O)O2)nn1`: the MIC is 2 µg/mL (≈ 4.8 µM) in assay [1], 2 µg/mL (≈ 4.8 µM) in the assay with Staphylococcus aureus and 0.5 µg/mL (≈ 1.2 µM) with Streptococcus pneumoniae. The same compound showed a Ki in assay [2] of over 200 µM.
For the compound `O=C1O[C@@H](Cn2cc(F)nn2)CN1c1ccc(C2=CCS(=O)(=O)CC2)c(F)c1`, the MIC in assay [1] was 2 µg/mL (≈ 4.87 µM); against Staphylococcus aureus, 1 µg/mL (≈ 2.44 µM); against Streptococcus pneumoniae, 0.25 µg/mL (≈ 0.609 µM). In addition, the Ki in assay [2] amounted to 0.5 µM.
`O=C1O[C@@H](Cn2cc(Br)nn2)CN1c1ccc(C2=CCS(=O)(=O)CC2)c(F)c1`: the results for the MIC (in assay [1]; against Staphylococcus aureus; against Streptococcus pneumoniae) were 2 µg/mL (≈ 4.24 µM), 2 µg/mL (≈ 4.24 µM) and 0.5 µg/mL (≈ 1.06 µM), respectively. Besides, affinity in assay [2] was put at a Ki of 16 µM.
On to `O=Cc1cn(C[C@H]2CN(c3ccc(C4=CCS(=O)(=O)CC4)c(F)c3)C(=O)O2)nn1`, for which the results for the MIC (in assay [1]; with Staphylococcus aureus; against Streptococcus pneumoniae) were 16 µg/mL (≈ 38.1 µM), 16 µg/mL (≈ 38.1 µM) and 2 µg/mL (≈ 4.76 µM), respectively. For the same compound, in assay [2], affinity was put at a Ki of 3.2 µM.
Take `Cc1cn(C[C@H]2CN(c3ccc(C4=CCS(=O)(=O)CC4)c(F)c3)C(=O)O2)nn1`: the MIC in assay [1] was 2 µg/mL (≈ 4.92 µM); in the assay with Staphylococcus aureus, 1 µg/mL (≈ 2.46 µM); in the assay with Streptococcus pneumoniae, 0.5 µg/mL (≈ 1.23 µM). In assay [2], this compound had a Ki of 25 µM.
As for `O=C1O[C@@H](Cn2cc(Cl)nn2)CN1c1ccc(C2=CCS(=O)(=O)CC2)c(F)c1`, the MIC in assay [1] was determined as 1 µg/mL (≈ 2.34 µM); against Staphylococcus aureus, 1 µg/mL (≈ 2.34 µM); against Streptococcus pneumoniae, 0.25 µg/mL (≈ 0.586 µM). The same compound showed a Ki in assay [2] of 3 µM.
In the case of `O=C1O[C@@H](Cn2nncc2F)CN1c1ccc(C2=CCS(=O)(=O)CC2)c(F)c1`, the MIC worked out at 64 µg/mL (≈ 156 µM) in assay [1], 32 µg/mL (≈ 78 µM) in the assay with Staphylococcus aureus and 8 µg/mL (≈ 19.5 µM) with Streptococcus pneumoniae. In assay [2], this compound yielded a Ki of 1.6 µM.
Consider `CC(=O)NC[C@H]1CN(c2ccc(C3=CCS(=O)(=O)CC3)c(F)c2)C(=O)O1`, for which the MIC in assay [1] was determined as 1 µg/mL (≈ 2.61 µM); with Staphylococcus aureus, 1 µg/mL (≈ 2.61 µM); against Streptococcus pneumoniae it was 0.25 µg/mL (≈ 0.654 µM). Also, the Ki in assay [2] is 5.9 µM.
Consider `O=C1O[C@@H](Cn2cc(/C=C/Br)nn2)CN1c1ccc(C2=CCS(=O)(=O)CC2)c(F)c1`, for which the MIC in assay [1] was found to be 8 µg/mL (≈ 16.1 µM); with Staphylococcus aureus it was 8 µg/mL (≈ 16.1 µM); against Streptococcus pneumoniae it was 2 µg/mL (≈ 4.02 µM). The Ki in assay [2] was over 200 µM.
Turning to `O=C1O[C@@H](Cn2ccnn2)CN1c1ccc(C2=CCS(=O)(=O)CC2)c(F)c1`, the MIC was 2 µg/mL (≈ 5.1 µM) in assay [1], 1 µg/mL (≈ 2.55 µM) in the assay with Staphylococcus aureus and 0.5 µg/mL (≈ 1.27 µM) against Streptococcus pneumoniae. For the same compound, the affinity in assay [2], expressed as Ki, was 3.4 µM.
The corresponding values for `O=C1O[C@@H](Cn2cc(COP(=O)(Oc3ccccc3)Oc3ccccc3)nn2)CN1c1ccc(C2=CCS(=O)(=O)CC2)c(F)c1` are 64 µg/mL (≈ 97.8 µM), 32 µg/mL (≈ 48.9 µM), 4 µg/mL (≈ 6.11 µM) and over 100 µM.
As for `N#CCc1cn(C[C@H]2CN(c3ccc(C4=CCS(=O)(=O)CC4)c(F)c3)C(=O)O2)nn1`, the MIC in assay [1] worked out at 2 µg/mL (≈ 4.64 µM); with Staphylococcus aureus, 16 µg/mL (≈ 37.1 µM); in the assay on Streptococcus pneumoniae, 1 µg/mL (≈ 2.32 µM). In addition, the Ki in assay [2] was over 200 µM.
`CC(C)(C)OC(=O)c1cn(C[C@H]2CN(c3ccc(C4=CCS(=O)(=O)CC4)c(F)c3)C(=O)O2)nn1`: the MIC (in assay [1]; in the assay with Staphylococcus aureus; in the assay with Streptococcus pneumoniae) was over 64 µg/mL each time. In assay [2], this compound showed a Ki of 3.5 µM.
In the case of `CC(C)c1cn(C[C@H]2CN(c3ccc(C4=CCS(=O)(=O)CC4)c(F)c3)C(=O)O2)nn1`, the MIC in assay [1] is 32 µg/mL (≈ 73.6 µM); with Staphylococcus aureus it was 8 µg/mL (≈ 18.4 µM); with Streptococcus pneumoniae, 4 µg/mL (≈ 9.21 µM). For the same compound, the Ki in assay [2] was 102 µM.
The like results for `Cc1cnnn1C[C@H]1CN(c2ccc(C3=CCS(=O)(=O)CC3)c(F)c2)C(=O)O1` were, in that order, over 64 µg/mL, over 64 µg/mL, 64 µg/mL (≈ 157 µM) and 4.5 µM.
The like results for `C[Si](C)(C)C#Cc1cn(C[C@H]2CN(c3ccc(C4=CCS(=O)(=O)CC4)c(F)c3)C(=O)O2)nn1` were, in that order, over 64 µg/mL, over 64 µg/mL, 1 µg/mL (≈ 2.05 µM) and over 200 µM.
As for `O=C1O[C@@H](Cn2cc(CO)nn2)CN1c1ccc(C2=CCS(=O)(=O)CC2)c(F)c1`, the MIC in assay [1] was determined as 4 µg/mL (≈ 9.47 µM); against Staphylococcus aureus, 32 µg/mL (≈ 75.8 µM); against Streptococcus pneumoniae, 2 µg/mL (≈ 4.73 µM). Further, the Ki in assay [2] amounted to 47 µM.
